This is an account of results in patent US12503438B2, “Compounds for the treatment of kinase-dependent disorders” (Exelixis, Inc., priority 2019, dated 2025).

Each structure is given as a SMILES string. pIC50: −log10 of the molar value.

The assay addresses T1, AXL (Homo sapiens, UniProt P30530).
T1 construct: endogenous in cells; host or cells: A-172 glioblastoma cells (ATCC #CRL-1620)
T1 sequence (P30530 26-894): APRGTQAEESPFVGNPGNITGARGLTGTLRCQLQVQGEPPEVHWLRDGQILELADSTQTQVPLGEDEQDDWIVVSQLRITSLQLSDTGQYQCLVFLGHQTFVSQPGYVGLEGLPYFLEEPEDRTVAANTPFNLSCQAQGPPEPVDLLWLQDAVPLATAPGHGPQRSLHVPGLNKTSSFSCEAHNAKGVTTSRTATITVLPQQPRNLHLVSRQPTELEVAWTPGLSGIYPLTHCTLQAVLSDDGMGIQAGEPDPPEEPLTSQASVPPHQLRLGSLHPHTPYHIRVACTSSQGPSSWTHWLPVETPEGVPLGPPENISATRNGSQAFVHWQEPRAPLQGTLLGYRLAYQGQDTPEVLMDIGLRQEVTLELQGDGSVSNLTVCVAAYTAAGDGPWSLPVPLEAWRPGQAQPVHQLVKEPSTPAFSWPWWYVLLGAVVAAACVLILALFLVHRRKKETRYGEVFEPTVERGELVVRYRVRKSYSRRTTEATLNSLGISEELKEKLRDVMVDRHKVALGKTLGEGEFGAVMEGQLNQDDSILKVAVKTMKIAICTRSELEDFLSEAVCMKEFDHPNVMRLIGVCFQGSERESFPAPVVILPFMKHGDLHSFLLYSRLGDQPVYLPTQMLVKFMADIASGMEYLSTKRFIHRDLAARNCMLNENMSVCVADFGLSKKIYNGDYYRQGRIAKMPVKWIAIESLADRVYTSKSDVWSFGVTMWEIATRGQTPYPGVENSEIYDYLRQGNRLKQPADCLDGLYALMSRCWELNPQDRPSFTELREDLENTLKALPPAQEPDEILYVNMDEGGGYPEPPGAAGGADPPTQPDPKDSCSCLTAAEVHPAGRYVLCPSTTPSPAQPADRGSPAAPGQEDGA
The assay is described as follows: AXL autophosphorylation ELISA in A-172 cells. The settings on record: cellular activity, Gas6-stimulated, phospho-AXL ELISA. The assay is classed as cell-based. As to the method: A-172 glioblastoma cells (ATCC #CRL-1620) were seeded at 2.5×10^5 cells/well onto 24-well plates (Greiner #662165), in DMEM (Thermo Fisher #11995-040) containing 10% FBS (Thermo Fisher #26140-079), 1% MEM NEAA (Thermo Fisher #11140-050), 1% GlutaMax (Thermo Fisher #35050-061) and 1% Penicillin Streptomycin (Thermo Fisher #15140-122). A-172 cells were incubated at 37° C., 5% CO2 for 24 h and then starved for 24 h in serum-free medium. Test compounds were serially diluted to produce an 8-point dose curve in fresh serum-free medium to a final concentration of 0.3% DMSO (vehicle) and added to the cells and incubated for 1 h. Cells were then stimulated with 1 μg/mL recombinant human Gas6 (R&D Systems #885-GSB-500) for 15 min, washed with cold PBS and immediately lysed with 150 μL of cold 1× lysis buffer [20 mM Tris, 137 mM sodium chloride, 2 mM EDTA, 10% glycerol, 1% NP-40 alternative, 1 mM activated sodium orthovanadate, 1 mM PefaBloc SC (Sigma-Aldrich #11429868001), protease/phosphatase inhibitor tablet (Thermo Fisher #A32959)]. Lysates were collected and 100 μL/well added into the human phospho-AXL DuoSet IC ELISA (R&D Systems #DYC2228-2). Assay was performed according to manufacturer's instructions and sample phospho-AXL concentrations were extrapolated using human phospho-AXL control (R&D Systems #841645) as a standard. Positive control wells (100% activity) contained Gas6-stimulated, DMSO-treated cell lysates. Negative control wells (0% activity) contained Gas6-stimulated, reference inhibitor-treated cell lysates. IC50 values were calculated by nonlinear regression analysis using a 4-parameter logistic curve fit in ActivityBase XE (IDBS).

In the case of `Cn1cc(-c2ccc3c(Oc4ccc(NC(=O)C5(C(=O)Nc6ccc(F)cc6)CC5)cc4)ccnc3c2)ccc1=O` [Compound 119, 1-N′-(4-Fluorophenyl)-1-N-[4-[7-(1-methyl-6-oxopyridin-3-yl)quinolin-4-yl]oxyphenyl]cyclopropane-1,1-dicarboxamide], the pIC50 was at least 8.00.

Compound `N#Cc1cncc(-c2ccc3c(Oc4ccc(NC(=O)C5(C(=O)Nc6ccc(F)cc6)CC5)cc4)ccnc3c2)c1` [Compound 40, 1-N-[4-[7-(5-Cyanopyridin-3-yl)quinolin-4-yl]oxyphenyl]-1-N′-(4-fluorophenyl)cyclopropane-1,1-dicarboxamide] gave a pIC50 of 7.00 to 8.00.

`N#Cc1cc(-c2ccc3c(Oc4ccc(NC(=O)C5(C(=O)Nc6ccc(F)cc6)CC5)cc4)ccnc3c2)ccn1` [Compound 34, 1-N-[4-[7-(2-Cyanopyridin-4-yl)quinolin-4-yl]oxyphenyl]-1-N′-(4-fluorophenyl)cyclopropane-1,1-dicarboxamide] showed a pIC50 of 7.00 to 8.00.

`O=C(Nc1ccc(F)cc1)C1(C(=O)Nc2ccc(Oc3ccnc4cc(-c5ccc(F)nc5)ccc34)cc2)CC1` [Compound 41, 1-N′-(4-Fluorophenyl)-1-N-[4-[7-(6-fluoropyridin-3-yl)quinolin-4-yl]oxyphenyl]cyclopropane-1,1-dicarboxamide] showed a pIC50 of 7.00 to 8.00.

Compound `Cc1cc2c(Oc3ccc(NC(=O)C4(C(=O)Nc5ccc(F)cc5)CC4)cc3F)ccnc2cc1-c1ncc[nH]1` [Compound 122, 1-N′-[3-Fluoro-4-[7-(1H-imidazol-2-yl)-6-methylquinolin-4-yl]oxyphenyl]-1-N-(4-fluorophenyl)cyclopropane-1,1-dicarboxamide] had a pIC50 of 7.00 to 8.00.

As to `O=C(Nc1ccc(F)cc1)C1(C(=O)Nc2ccc(Oc3ccnc4cc(-c5cncs5)ccc34)cc2)CC1` [Compound 116, 1-N′-(4-Fluorophenyl)-1-N-[4-[7-(1,3-thiazol-5-yl)quinolin-4-yl]oxyphenyl]cyclopropane-1,1-dicarboxamide], the pIC50 is 7.00 to 8.00.

With `O=C(Nc1ccc(F)cc1)C1(C(=O)Nc2ccc(Oc3ccnc4cc(-c5cccnc5)ccc34)c(F)c2)CC1` [Compound 113, 1-N-(4-Fluorophenyl)-1-N′-[3-fluoro-4-(7-pyridin-3-ylquinolin-4-yl)oxyphenyl]cyclopropane-1,1-dicarboxamide], the pIC50 is 7.00 to 8.00.

For `Nc1ccc(-c2ccc3c(Oc4ccc(NC(=O)C5(C(=O)Nc6ccc(F)cc6)CC5)cc4)ccnc3c2)cn1` [Compound 38, 1-N-[4-[7-(6-Aminopyridin-3-yl)quinolin-4-yl]oxyphenyl]-1-N′-(4-fluorophenyl)cyclopropane-1,1-dicarboxamide], the negative logarithm of the IC50 (pIC50) was 7.00 to 8.00.

In turn, `COc1cncc(-c2ccc3c(Oc4ccc(NC(=O)C5(C(=O)Nc6ccc(F)cc6)CC5)cc4)ccnc3c2)c1` [Compound 47, 1-N′-(4-Fluorophenyl)-1-N-[4-[7-(5-methoxypyridin-3-yl)quinolin-4-yl]oxyphenyl]cyclopropane-1,1-dicarboxamide] showed a pIC50 of 7.00 to 8.00.

`Cc1cc2c(Oc3c(F)cc(NC(=O)C4(C(=O)Nc5ccc(F)cc5)CC4)c(F)c3F)ccnc2cc1-c1cnn(C)c1` [Compound 110, 1-N-(4-Fluorophenyl)-1-N′-[2,3,5-trifluoro-4-[6-methyl-7-(1-methylpyrazol-4-yl)quinolin-4-yl]oxyphenyl]cyclopropane-1,1-dicarboxamide]: the negative logarithm of the IC50 (pIC50) is 7.00 to 8.00.

Turning to `Cc1cc2c(Oc3ccc(NC(=O)C4(C(=O)Nc5ccc(F)cc5)CC4)cc3)ccnc2cc1-c1ncc[nH]1` [Compound 120, 1-N′-(4-Fluorophenyl)-1-N-[4-[7-(1H-imidazol-2-yl)-6-methylquinolin-4-yl]oxyphenyl]cyclopropane-1,1-dicarboxamide], the negative-log IC50 (pIC50) was 7.00 to 8.00.

`O=C(Nc1ccc(F)cc1)C1(C(=O)Nc2cc(F)c(Oc3ccnc4cc(-c5cnn(C(F)F)c5)ccc34)cc2F)CC1` [Compound 118, 1-N′-[4-[7-[1-(Difluoromethyl)pyrazol-4-yl]quinolin-4-yl]oxy-2,5-difluorophenyl]-1-N-(4-fluorophenyl)cyclopropane-1,1-dicarboxamide] showed a pIC50 of at least 8.00.

`Cc1cncc(-c2ccc3c(Oc4ccc(NC(=O)C5(C(=O)Nc6ccc(F)cc6)CC5)cc4)ccnc3c2)c1` [Compound 46, 1-N′-(4-Fluorophenyl)-1-N-[4-[7-(5-methylpyridin-3-yl)quinolin-4-yl]oxyphenyl]cyclopropane-1,1-dicarboxamide] gave a negative-log IC50 (pIC50) of under 6.52.

Compound `O=C(Nc1ccc(F)cc1)C1(C(=O)Nc2ccc(Oc3ccnc4cc(-c5cnn(C(F)F)c5)ccc34)c(F)c2)CC1` [Compound 123, 1-N′-[4-[7-[1-(Difluoromethyl)pyrazol-4-yl]quinolin-4-yl]oxy-3-fluorophenyl]-1-N-(4-fluorophenyl)cyclopropane-1,1-dicarboxamide] had a pIC50 of at least 8.00.

`O=C(Nc1ccc(F)cc1)C1(C(=O)Nc2ccc(Oc3ccnc4cc(-c5cnn6c5CCC6)ccc34)cc2)CC1` [Compound 29, 1-N-[4-[7-(5,6-Dihydro-4H-pyrrolo[1,2-b]pyrazol-3-yl)quinolin-4-yl]oxyphenyl]-1-N′-(4-fluorophenyl)cyclopropane-1,1-dicarboxamide]: the pIC50 is 7.00 to 8.00.

For `O=C(Nc1ccc(F)cc1)C1(C(=O)Nc2ccc(Oc3ccnc4cc(-c5cnc6[nH]ncc6c5)ccc34)cc2)CC1` [Compound 39, 1-N′-(4-Fluorophenyl)-1-N-[4-[7-(1H-pyrazolo[3,4-b]pyridin-5-yl)quinolin-4-yl]oxyphenyl]cyclopropane-1,1-dicarboxamide], the pIC50 is 7.00 to 8.00.

Compound `CC(C)Oc1ccc(-c2ccc3c(Oc4ccc(NC(=O)C5(C(=O)Nc6ccc(F)cc6)CC5)cc4)ccnc3c2)cn1` [Compound 50, 1-N′-(4-Fluorophenyl)-1-N-[4-[7-(6-propan-2-yloxypyridin-3-yl)quinolin-4-yl]oxyphenyl]cyclopropane-1,1-dicarboxamide] had a pIC50 of 6.52 to 7.00.

In turn, `CN1CCN(c2cc(-c3ccc4c(Oc5ccc(NC(=O)C6(C(=O)Nc7ccc(F)cc7)CC6)cc5)ccnc4c3)ccn2)CC1` [Compound 111, 1-N′-(4-Fluorophenyl)-1-N-[4-[7-[2-(4-methylpiperazin-1-yl)pyridin-4-yl]quinolin-4-yl]oxyphenyl]cyclopropane-1,1-dicarboxamide] gave a pIC50 of 7.00 to 8.00.

`Cn1ccc(-c2ccc3c(Oc4ccc(NC(=O)C5(C(=O)Nc6ccc(F)cc6)CC5)cc4)ccnc3c2)cc1=O` [Compound 117, 1-N′-(4-Fluorophenyl)-1-N-[4-[7-(1-methyl-2-oxopyridin-4-yl)quinolin-4-yl]oxyphenyl]cyclopropane-1,1-dicarboxamide] showed a negative-log IC50 (pIC50) of at least 8.00.

As for `COc1cc(-c2ccc3c(Oc4ccc(NC(=O)C5(C(=O)Nc6ccc(F)cc6)CC5)cc4)ccnc3c2)ccn1` [Compound 31, 1-N′-(4-Fluorophenyl)-1-N-[4-[7-(2-methoxypyridin-4-yl)quinolin-4-yl]oxyphenyl]cyclopropane-1,1-dicarboxamide], the pIC50 was 7.00 to 8.00.

Consider `N#Cc1ccc(-c2ccc3c(Oc4ccc(NC(=O)C5(C(=O)Nc6ccc(F)cc6)CC5)cc4)ccnc3c2)cn1` [Compound 42, 1-N-[4-[7-(6-Cyanopyridin-3-yl)quinolin-4-yl]oxyphenyl]-1-N′-(4-fluorophenyl)cyclopropane-1,1-dicarboxamide], for which the negative-log IC50 (pIC50) is 7.00 to 8.00.
